Where a SMILES comes first, the peptide text is derived from it. Bridges are numbered along the chain shown (N, C = ends). Where no end group is shown, it is not given here. Side-chain parts run from the residue outwards. [ ]: non-standard residue; d: D form. The star is where a group is joined. Desaminohistidyl = O=C(CCc1c[nH]cn1)*; PLA = phenyl lactic acid; Aib = CC(C)(N)C(=O)O
Key:
[1] = Body weight and food intake of DIO mice over one week (Example 8); format: in vivo; conditions: 15 or 70 nmol/kg; for total food intake: seven days after injection
Procedure: (§1) Nine groups of diabetes-induced obesity (DIO) mice (8 mice per group) having an initial average body weight of 56 g were intraperitoneally injected once and followed for one week with 15 or 70 nmol/kg of Peptides Y, Z, F-Peg, and G-Peg described below or PBS vehicle control.
The body weight of each mouse of each group was measured on 1, 3, 5, and 7 days after injection with the vehicle control or peptide. Total change in body weight was calculated by subtracting the average body weight of a group at the time of injection with vehicle or peptide from the average body weight of the group seven days after injection. Food intake by each group of mice was measured during the course of the week as well. Total food intake was measured seven days after injection with vehicle control or peptide. […] The Ser11 substitution or the des-amino His7 reduces total efficacy.

[2] = test system: blood glucose; experiment: Glucose challenge in DIO mice after pegylated peptide injection (Example 8); format: in vivo; conditions: 15 or 70 nmol/kg, glucose injected sixty minutes after peptide
Procedure: as §1
(§2) Sixty minutes after injection with one of the peptides or with vehicle control (at time point 0), a 25% (w/v) glucose saline solution was injected at a dose of 1.5 g per kg of body weight. Blood glucose concentrations of the mice were measured at the time of injection of the peptide or vehicle control (at time point −60), at the time of glucose injection (at time point 0), and at 15, 30, 60, and 120 minutes after glucose injection.

[3] = Cleavage of dipeptide-extended prodrugs on incubation in PBS (HPLC/MS); format: physicochemical
Procedure: Preliminary analyses were performed with these crude peptides to get an approximation of their relative conversion rates in Phosphate Buffered Saline (PBS) buffer (pH, 7.2) using high performance liquid chromatography (HPLC) and MALDI analysis. The crude peptide samples were dissolved in the PBS buffer at a concentration of 1 mg/ml. 1 ml of the resulting solution was stored in a 1.5 ml HPLC vial which was then sealed and incubated at 37° C. Aliquots of 100 μl were drawn out at various time intervals, cooled to room temperature and analyzed by HPLC.
HPLC analyses were performed on a 150 mm×4.6 mm C18 Vydac column. The flow rate was 1 ml/min. […] A linear gradient was employed (40% to 70% B in 15 minutes).
Each N-terminally extended peptide was incubated in PBS buffer at 37° C. for approximately a week. Alternatively, each peptide was heated for 120 min at 100° C. to accelerate the amide bond cleavage. Cleavage of the prodrugs was analyzed by reverse phase HPLC and MS.
To explore the possible formation of 2,5-diketopiperazine (DKP) or 2,5-diketomorpholine (DMP) and the simultaneous generation of HO-F^7,GLP(8-36)-CEX, the prodrug was incubated in PBS buffer at 37° C. for approximately a week. The peptide was also heated at 100° C. to determine the susceptibility to cleavage (Table 4).

[4] = target: T1, GLP-1 receptor (Homo sapiens, UniProt P43220); experiment: Luciferase-based reporter gene assay for cAMP detection, GLP-1 receptor; format: cell-based
T1 construct: expressed in transfected cells; host or cells: HEK293

[5] = test system: blood glucose; experiment: Glucose challenge in DIO mice after intraperitoneal peptide injection (Examples 5-7); format: in vivo; conditions: 2 nmol/kg
Procedure: Six groups of diabetes-induced obesity (DIO) mice (eight mice per group) having an initial average body weight of 49.5 g were intraperitoneally injected with 2 nmol/kg of a PBS vehicle control or one of Peptides A-E described below:
as §2, with “Fifteen” for “Sixty”, “compounds” for “peptides”, “compound” for “peptide”, “control,” for “control (at time point −60),”, “injection,” for “injection (at time point 0),”
Blood glucose levels of the mice were measured as described in Example 5.

T1 sequence (P43220 24-463, species assumed): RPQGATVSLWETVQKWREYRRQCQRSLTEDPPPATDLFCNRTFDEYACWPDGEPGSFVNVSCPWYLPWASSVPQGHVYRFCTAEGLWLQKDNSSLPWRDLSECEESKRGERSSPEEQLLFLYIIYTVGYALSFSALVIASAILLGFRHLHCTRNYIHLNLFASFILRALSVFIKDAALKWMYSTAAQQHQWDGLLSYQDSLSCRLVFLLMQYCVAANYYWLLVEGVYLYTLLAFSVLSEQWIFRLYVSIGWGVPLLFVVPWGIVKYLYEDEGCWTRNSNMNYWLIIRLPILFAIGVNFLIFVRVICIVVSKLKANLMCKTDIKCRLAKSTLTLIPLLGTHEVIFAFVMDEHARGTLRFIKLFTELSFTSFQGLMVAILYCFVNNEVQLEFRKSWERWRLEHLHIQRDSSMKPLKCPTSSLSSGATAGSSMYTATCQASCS

Row | Molecule | total food intake [1] | blood glucose concentrations versus vehicle control [2] | blood glucose of prodrug form versus corresponding non-prodrug form [5] | further results
1 | Peptide G-Peg: pegylated prodrug, d-Phe-d-Val ester on Ser at position 8; SEQ ID NO: 656 ([Desaminohistidyl]S([dV-dF])EGTFTSDVSSYLEEQAAKEFIC(PEG 40 kDa)WLVKGRPSSGAPPPS-NH2) | decreased | less as compared to the blood glucose levels of mice injected with vehicle control | – | total efficacy over a week study [1]: comparable
2 | CC[C@H](C)[C@H](NC(=O)[C@H](Cc1ccccc1)NC(=O)[C@H](CCC(=O)O)NC(=O)[C@H](CCCCN)NC(=O)[C@H](C)NC(=O)[C@H](C)NC(=O)[C@H](CCC(N)=O)NC(=O)CNC(=O)[C@H](CCC(=O)O)NC(=O)[C@H](CC(C)C)NC(=O)[C@H](Cc1ccc(O)cc1)NC(=O)[C@H](CO)NC(=O)[C@H](CO)NC(=O)[C@@H](NC(=O)[C@H](CC(=O)O)NC(=O)[C@H](CO)NC(=O)[C@@H](NC(=O)[C@H](Cc1ccccc1)NC(=O)[C@H](COC(=O)CNC(=O)CN)NC(=O)CNC(=O)[C@H](CCC(N)=O)NC(=O)[C@H](C)NC(=O)[C@@H](N)Cc1ccccc1)[C@@H](C)O)C(C)C)C(=O)N[C@@H](C)C(=O)N[C@@H](Cc1c[nH]c2ccccc12)C(=O)N[C@@H](CC(C)C)C(=O)N[C@H](C(=O)N[C@@H](CCCCN)C(=O)NCC(=O)NCC(=O)N1CCC[C@H]1C(=O)N[C@@H](CO)C(=O)N[C@@H](CO)C(=O)NCC(=O)N[C@@H](C)C(=O)N1CCC[C@H]1C(=O)N1CCC[C@H]1C(=O)N1CCC[C@H]1C(=O)N[C@@H](CO)C(N)=O)C(C)C (H-FAQGS([Gly-Gly])FTSDVSSYLEGQAAKEFIAWLVKGGPSSGAPPPS-NH2; N-terminus and C-terminus assumed) | – | – | – | half-life ([3]; buffer, PBS pH 7.2, 37° C.): 2.7 h; prodrug converted to the active entity ([3]; in 5 hours, worked out from the half life ([…])): approximately 70%
3 | H^7AEGTFTSDVSSYLEGQAAKEFIAWLVKGXPSSGAPPPS-amide [GLP(7-36)-CEX amide] | – | – | – | potency relative to native GLP-1 [4]: approximately ten times more potent in vitro than the native GLP-1 sequence
4 | Peptide G: prodrug of Peptide F, d-Phe-dVal ester on Ser at position 2 of Peptide F; SEQ ID NO: 651 ([Desaminohistidyl]S([dV-dF])EGTFTSDVSSYLEEQAAKEFIAWLVKGRPSSGAPPPS-NH2; SMILES CC[C@H](C)[C@H](NC(=O)[C@H](Cc1ccccc1)NC(=O)[C@H](CCC(=O)O)NC(=O)[C@H](CCCCN)NC(=O)[C@H](C)NC(=O)[C@H](C)NC(=O)[C@H](CCC(N)=O)NC(=O)[C@H](CCC(=O)O)NC(=O)[C@H](CCC(=O)O)NC(=O)[C@H](CC(C)C)NC(=O)[C@H](Cc1ccc(O)cc1)NC(=O)[C@H](CO)NC(=O)[C@H](CO)NC(=O)[C@@H](NC(=O)[C@H](CC(=O)O)NC(=O)[C@H](CO)NC(=O)[C@@H](NC(=O)[C@H](Cc1ccccc1)NC(=O)[C@@H](NC(=O)CNC(=O)[C@H](CCC(=O)O)NC(=O)[C@H](COC(=O)[C@H](NC(=O)[C@H](N)Cc1ccccc1)C(C)C)NC(=O)CCc1c[nH]cn1)[C@@H](C)O)[C@@H](C)O)C(C)C)C(=O)N[C@@H](C)C(=O)N[C@@H](Cc1c[nH]c2ccccc12)C(=O)N[C@@H](CC(C)C)C(=O)N[C@H](C(=O)N[C@@H](CCCCN)C(=O)NCC(=O)N[C@@H](CCCNC(=N)N)C(=O)N1CCC[C@H]1C(=O)N[C@@H](CO)C(=O)N[C@@H](CO)C(=O)NCC(=O)N[C@@H](C)C(=O)N1CCC[C@H]1C(=O)N1CCC[C@H]1C(=O)N1CCC[C@H]1C(=O)N[C@@H](CO)C(N)=O)C(C)C) | – | – | higher than the blood glucose levels of mice injected with its corresponding non-prodrug form | –
5 | F^7,GLP(8-37): aa 7-37 of GLP-1 with the His at position 7 replaced with Phe (FAEGTFTSDVSSYLEGQAAKEFIAWLVKGRG; Glucagon-like peptide 1(7-37); UniProt P01275 98-128, looked up, variant H7F) | – | – | – | potency of native GLP-1 ([4]; relative to native GLP): 10%
6 | Peptide E: prodrug of Peptide D, d-Phe-d-Val ester on Ser at position 11; SEQ ID NO: 649 (H[Aib]EGS([dV-dF])FTSDVSSYLEEQAAKEFIAWLVKGRPSSGAPPPS-NH2; N-terminus assumed; SMILES CC[C@H](C)[C@H](NC(=O)[C@H](Cc1ccccc1)NC(=O)[C@H](CCC(=O)O)NC(=O)[C@H](CCCCN)NC(=O)[C@H](C)NC(=O)[C@H](C)NC(=O)[C@H](CCC(N)=O)NC(=O)[C@H](CCC(=O)O)NC(=O)[C@H](CCC(=O)O)NC(=O)[C@H](CC(C)C)NC(=O)[C@H](Cc1ccc(O)cc1)NC(=O)[C@H](CO)NC(=O)[C@H](CO)NC(=O)[C@@H](NC(=O)[C@H](CC(=O)O)NC(=O)[C@H](CO)NC(=O)[C@@H](NC(=O)[C@H](Cc1ccccc1)NC(=O)[C@H](COC(=O)[C@H](NC(=O)[C@H](N)Cc1ccccc1)C(C)C)NC(=O)CNC(=O)[C@H](CCC(=O)O)NC(=O)C(C)(C)NC(=O)[C@@H](N)Cc1c[nH]cn1)[C@@H](C)O)C(C)C)C(=O)N[C@@H](C)C(=O)N[C@@H](Cc1c[nH]c2ccccc12)C(=O)N[C@@H](CC(C)C)C(=O)N[C@H](C(=O)N[C@@H](CCCCN)C(=O)NCC(=O)N[C@@H](CCCNC(=N)N)C(=O)N1CCC[C@H]1C(=O)N[C@@H](CO)C(=O)N[C@@H](CO)C(=O)NCC(=O)N[C@@H](C)C(=O)N1CCC[C@H]1C(=O)N1CCC[C@H]1C(=O)N1CCC[C@H]1C(=O)N[C@@H](CO)C(N)=O)C(C)C) | – | – | higher than the blood glucose levels of mice injected with the corresponding non-prodrug forms of the peptides | –
7 | 2 (FTSEYSKYLDERRAQDFVQWLMNTGPSSGAPPPS; lactam 7-11) [Peptide 2] | – | – | – | t1/2 ([3]; buffer): HO-Phe-dVal (t1/2 = 50.5 hrs)
8 | Peptide Y: GLP-1-based peptide with Cys at 30 linked to a 40 kDa PEG; SEQ ID NO: 653 (H[Aib]EGTFTSDVSSYLEEQAAKEFIC(PEG 40 kDa)WLVKGRPSSGAPPPS-NH2) | decreased | less as compared to the blood glucose levels of mice injected with vehicle control | – | potency in decreasing appetite and decreasing body weight ([1]; one week): most potent of the four peptides in decreasing appetite and decreasing body weight
9 | Peptide C: prodrug of Peptide B, d-Phe-d-Val attached via the O-terminus; SEQ ID NO: 647 ({dF-dV-PLA}-[Aib]EGTFTSDVSSYLEEQAAKEFIAWLVKGRPSSGAPPPS-NH2; also: dV-PLA joined by ester bond) | – | – | higher than the blood glucose levels of mice injected with the corresponding non-prodrug forms of the peptides | –
10 | HAEGTFTSDVSSYLEGQAAKEFIAWLVKGRGKRNRNNIA (listed as Homo sapiens) [GLP-oxyntomodulin] | – | – | – | potency relative to native GLP-1 [4]: at least as potent as the native GLP-1 peptide
11 | Peptide Z: pegylated prodrug, d-Phe-d-Val ester on Ser at position 11; SEQ ID NO: 654 (H[Aib]EGS([dV-dF])FTSDVSSYLEEQAAKEFIC(PEG 40 kDa)WLVKGRPSSGAPPPS-NH2) | decreased | less as compared to the blood glucose levels of mice injected with vehicle control | – | –
12 | Peptide F-Peg: Peptide F sequence with Cys at 30 linked to a 40 kDa PEG; SEQ ID NO: 655 ([Desaminohistidyl]SEGTFTSDVSSYLEEQAAKEFIC(PEG 40 kDa)WLVKGRPSSGAPPPS-NH2) | decreased | less as compared to the blood glucose levels of mice injected with vehicle control | – | total efficacy over a week study [1]: comparable
13 | Peptide A: prodrug of Peptide B, d-Phe-dPhe attached via the O-terminus; SEQ ID NO: 645 ({dF-dF-PLA}-[Aib]EGTFTSDVSSYLEEQAAKEFIAWLVKGRPSSGAPPPS-NH2; also: dF-PLA joined by ester bond) | – | – | higher than the blood glucose levels of mice injected with the corresponding non-prodrug forms of the peptides | –

— patent US9089539B2 (Indiana University Research and Technology Corporation, priority 2008, dated 2015)
